Experimental data from patent publication US20070196359A1, “Halosuccinimide biocide” (Minntech Corporation, priority 2006, published 2007).

How the values were obtained:
[1] = test system: B. subtilis bacterial spores; assay: Efficacy against bacterial endospores (FIG. 1); assay type: cell-based
Protocol: The NCS biocide solution included about 1% NCS and was buffered at a pH of about 4. The NBS biocide solution included about 1% NBS and was buffered at pH about 3. […] In the case of NCS, a total kill corresponding to a 6 log reduction occurred over a period of approximately 30 minutes. In the case of NBS, a total kill corresponding to a 6 log reduction occurred over a period of approximately 60 minutes.

M. terrae mycobacteria = assay: Efficacy against mycobacteria (FIG. 2); assay type: cell-based; conditions: for time to total kill of mycobacteria: pH 7.4
Protocol: The NCS biocide solution included about 1% NCS, was buffered at a pH of about 4 and was tested at 20° C. The NBS biocide solution included about 1% NBS, was buffered at a pH of about 3 and was tested at 20° C. Each solution produced a total kill corresponding to a 6 log reduction of the mycobacteria.

[2] = Stability of the biocide solution over time, active ingredient by iodometric titration (FIG. 3); assay type: physicochemical
Excerpt: The NBS biocide solution included about 1.0% NBS, 0.19% surfactant L-44 and was at a pH of about 3. The NCS biocide solution included about 1.0% NCS, 0.19% surfactant and was at a pH of about 3.

[3] = about 1% NBS, buffered at pH about 3, 20° C
[4] = about 1% NCS, buffered at pH about 4, 20° C

| Compound | period to total kill (6 log reduction) [1, 3] | total kill, log reduction in the bacteria [1, 3] [log] | time to total kill (M. terrae mycobacteria; [3]) | total kill, log reduction of the mycobacteria (M. terrae mycobacteria; [3]) [log] | time to total kill of mycobacteria (M. terrae mycobacteria) | stability over time ([2]; about 1.0% NBS, 0.19% surfactant L-44, pH about 3, increasing amounts of succinimide added, best at 9.0%) | period to total kill (6 log reduction) [1, 4] | total kill, log reduction in the bacteria [1, 4] [log] | time to total kill (M. terrae mycobacteria; [4]) | total kill, log reduction of the mycobacteria (M. terrae mycobacteria; [4]) [log] | stability over time compared to NCS alone ([2]; about 1.0% NCS, 0.19% surfactant, pH about 3, 4.8% succinimide added) |
| --- | --- | --- | --- | --- | --- | --- | --- | --- | --- | --- | --- |
| O=C1CCC(=O)N1Br [NBS, N-bromosuccinimide] | approximately 60 minutes | 6 | about 30 seconds | 6 | about 175 seconds | improved stability over time | – | – | – | – | – |
| O=C1CCC(=O)N1Cl [NCS, N-chlorosuccinimide] | – | – | – | – | about 90 seconds | – | approximately 30 minutes | 6 | about 30 seconds | 6 | improved stability |
